According to patent US20210275575A1, “COMPOSITION FOR IMPROVING RENAL FUNCTION IN RENAL DISEASES CONTAINING MOLECULAR HYDROGEN” (MiZ Company Limited, priority 2020, published 2021):
Where two headings read alike, the source gives them in different places.

Columns and labels:
[1] = tested on: human patient with chronic nephritis
[2] = tested on: patient with renal failure
Experimental: A person developed renal failure from diabetes and has been on dialysis since 2006.
Therefore, they started hydrogen gas inhalation in September 2019. Specifically, they did inhalations 3 to 4 hours per day using a hydrogen generator (model used: Jobs-a manufactured by MiZ Company Limited (hydrogen concentration: about 5%, other gas: air), amount of hydrogen gas generated: 200 ml/min).

[3] = approximately three years after first visit (about 2 years of inhalation)
[4] = approximately two and a half years after first visit
[5] = approximately two and a half years after first visit, 6 to 7.5% hydrogen inhaled 2 to 3 hours per day

[HH] [molecular hydrogen]
urinary protein (protein amount per day) ([1]; about 2 years of inhalation, when the excreted urine volume is 1.5 L per day, normal levels: less than 0.2 g/day): about 0.1 g/day | urinary protein determination ([1]; approximately three years after first visit (about 2 years after the start of molecular hydrogen inhalation)): 6.6 mg/dL | HbA1c [1, 3]: 6.5% | blood sugar level [1, 3]: 139 mg/dL | glyco-albumin [1, 3]: 17.3% | need for dialysis (doctor's judgement) [1, 3]: dialysis was not required | renal function and diabetic symptoms (assessment in words) [1, 3]: improvement in renal function and diabetic symptoms was observed | serum creatinine [1, 3]: 0.86 mg/dL | urea nitrogen (BUN) [1, 3]: 21.5 mg/dL | urinary creatinine [1, 3]: 27.3 mg/dL | eGFR ([1]; approximately three years after first visit (about 2 years of inhalation), formula of b46 (ml/min/1.73 m^2)): 45.9 | urinary protein/urinary creatinine ratio ([1]; approximately three years after first visit (about 2 years of inhalation), normal levels: less than 0.3 g/gCr): 0.24 g/gCr | HbA1c [1, 4]: 8.0% | blood sugar level [1, 4]: 181 mg/dL | glyco-albumin [1, 4]: 24.7% | renal function (assessment in words) [1, 4]: tendency for improvement | serum creatinine [1, 4]: 0.91 mg/dL | symptoms of diabetes (assessment in words) [1, 4]: seem to be getting worse | urea nitrogen (BUN) [1, 4]: 22.1 mg/dL | urinary creatinine [1, 5]: 24.1 mg/dL | urinary protein determination [1, 5]: 25.3 mg/dL | urinary protein/urinary creatinine ratio [1, 5]: 1.05 g/gCr | eGFR ([1]; approximately two and a half years after first visit, eGFR estimated by the formula of b46 (ml/min/1.73 m^2)): 52.0 | urinary protein ([1]; approximately two and a half years after first visit, inhalation of 6 to 7.5% hydrogen about 2 to 3 hours per day, started about one year after first visit, concomitant medicaments): ± (± is A2) | feelings of heaviness after dialysis ([2]; 1 month after starting hydrogen inhalation): their body felt lighter | edema after dialysis ([2]; 1 month after starting hydrogen inhalation, about 5% hydrogen in air, 3 to 4 hours per day): the edema decreased | walking ability ([2]; 10 days after starting hydrogen inhalation, about 5% hydrogen in air, 3 to 4 hours per day): became able to walk
